Measured values reported in PubChem BioAssay (NCI).
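Compound exposure: 48 hours, 5 concentrations, 96-well plates. GI50 is the concentration that inhibits growth by half. At the TGI there is no net growth.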

How the values were obtained:
Assay in all cases: NCI anticancer screen, dose series, 48 h
U251 CNS = system: U251 CNS
K-562 leukemia = system: K-562 leukemia
M14 melanoma = system: M14 melanoma
HOP-92 NSCLC = system: HOP-92 NSCLC
NCI-H23 lung = system: NCI-H23 lung
HCT-15 colon = system: HCT-15 colon
SF-539 CNS = system: SF-539 CNS
SK-OV-3 ovarian = system: SK-OV-3 ovarian
MDA-MB-435 = system: MDA-MB-435
MCF7 breast = system: MCF7 breast
RPMI-8226 leukemia = system: RPMI-8226 leukemia
ACHN renal = system: ACHN renal
HS 578T breast = system: HS 578T breast
A498 renal = system: A498 renal
OVCAR-3 ovarian = system: OVCAR-3 ovarian
PC-3 prostate = system: PC-3 prostate
UO-31 renal = system: UO-31 renal
NCI-H226 lung = system: NCI-H226 lung
SK-MEL-28 melanoma = system: SK-MEL-28 melanoma
MDA-MB-231 breast = system: MDA-MB-231 breast
SK-MEL-5 melanoma = system: SK-MEL-5 melanoma
UACC-62 melanoma = system: UACC-62 melanoma
HCC-2998 colon = system: HCC-2998 colon
RXF 393 renal = system: RXF 393 renal
OVCAR-5 ovarian = system: OVCAR-5 ovarian
SN12C renal = system: SN12C renal
SW-620 colon = system: SW-620 colon
DU-145 prostate = system: DU-145 prostate
MOLT-4 leukemia = system: MOLT-4 leukemia
T-47D breast = system: T-47D breast
NCI-H522 lung = system: NCI-H522 lung
NCI-H460 lung = system: NCI-H460 lung
SNB-75 CNS = system: SNB-75 CNS
NCI/ADR-RES ovarian = system: NCI/ADR-RES ovarian
HCT-116 colon = system: HCT-116 colon
HT29 colon = system: HT29 colon
SF-295 CNS = system: SF-295 CNS
IGROV1 ovarian = system: IGROV1 ovarian
SNB-19 CNS = system: SNB-19 CNS
HL-60(TB) leukemia = system: HL-60(TB) leukemia
BT-549 breast = system: BT-549 breast
UACC-257 melanoma = system: UACC-257 melanoma
COLO 205 colon = system: COLO 205 colon
SF-268 CNS = system: SF-268 CNS
OVCAR-8 ovarian = system: OVCAR-8 ovarian
A549 NSCLC = system: A549 NSCLC
HOP-62 NSCLC = system: HOP-62 NSCLC
KM12 colon = system: KM12 colon
OVCAR-4 ovarian = system: OVCAR-4 ovarian
TK-10 renal = system: TK-10 renal
CAKI-1 renal = system: CAKI-1 renal
LOX IMVI melanoma = system: LOX IMVI melanoma
SK-MEL-2 melanoma = system: SK-MEL-2 melanoma
MALME-3M melanoma = system: MALME-3M melanoma
SR leukemia = system: SR leukemia
786-0 renal = system: 786-0 renal
CCRF-CEM leukemia = system: CCRF-CEM leukemia
EKVX NSCLC = system: EKVX NSCLC

## Cn1cc(C2=C(c3cccc([N+](=O)[O-])c3)C(=O)NC2=O)c2ccccc21
U251 CNS
  GI50: 5.9 µM
  TGI: > 25 µM
K-562 leukemia
  GI50: 4.85 µM
  TGI: > 25 µM
M14 melanoma
  GI50: 12.4 µM
  TGI: > 25 µM
HOP-92 NSCLC
  GI50: 4.22 µM
  TGI: > 20.6 µM
NCI-H23 lung
  GI50: 6.66 µM
  TGI: > 25 µM
HCT-15 colon
  GI50: 7.97 µM
  TGI: > 25 µM
SF-539 CNS
  GI50: 6.1 µM
  TGI: > 25 µM
SK-OV-3 ovarian
  GI50: 6.35 µM
  TGI: > 25 µM
MDA-MB-435
  GI50: 7.46 µM
  TGI: > 25 µM
MCF7 breast
  GI50: 3.17 µM
  TGI: > 25 µM
RPMI-8226 leukemia
  GI50: 7.47 µM
  TGI: > 23.2 µM
ACHN renal
  GI50: 4.88 µM
  TGI: > 25 µM
HS 578T breast
  GI50: 2.14 µM
  TGI: > 25 µM
A498 renal
  GI50: 0.539 µM
  TGI: 1.81 µM
OVCAR-3 ovarian
  GI50: 5.33 µM
  TGI: > 22 µM
PC-3 prostate
  GI50: 5.61 µM
  TGI: > 25 µM
UO-31 renal
  GI50: 6.46 µM
  TGI: > 25 µM
NCI-H226 lung
  GI50: 4.62 µM
  TGI: > 19.2 µM
SK-MEL-28 melanoma
  GI50: 10.5 µM
  TGI: > 25 µM
MDA-MB-231 breast
  GI50: 6.42 µM
  TGI: > 25 µM
SK-MEL-5 melanoma
  GI50: 3.63 µM
  TGI: 8.48 µM
UACC-62 melanoma
  GI50: 6.58 µM
  TGI: 18.1 µM
HCC-2998 colon
  GI50: 14.5 µM
  TGI: > 25 µM
RXF 393 renal
  GI50: 2.12 µM
  TGI: 9.4 µM
OVCAR-5 ovarian
  GI50: > 25 µM
  TGI: > 25 µM
SN12C renal
  GI50: 9.61 µM
  TGI: > 25 µM
SW-620 colon
  GI50: 11.4 µM
  TGI: > 25 µM
DU-145 prostate
  GI50: 12.7 µM
  TGI: > 25 µM
MOLT-4 leukemia
  GI50: 7.18 µM
  TGI: > 22.8 µM
T-47D breast
  GI50: 6.32 µM
  TGI: 19.4 µM
NCI-H522 lung
  GI50: 7.66 µM
  TGI: > 22.5 µM
NCI-H460 lung
  GI50: 8.52 µM
  TGI: > 25 µM
SNB-75 CNS
  GI50: 0.14 µM
  TGI: > 25 µM
NCI/ADR-RES ovarian
  GI50: 5.66 µM
  TGI: > 23.1 µM
HCT-116 colon
  GI50: 5.5 µM
  TGI: > 25 µM
HT29 colon
  GI50: 7.29 µM
  TGI: > 25 µM
SF-295 CNS
  GI50: 2.14 µM
  TGI: > 14 µM
IGROV1 ovarian
  GI50: 9.98 µM
  TGI: 24.2 µM
SNB-19 CNS
  GI50: 19.6 µM
  TGI: > 25 µM
HL-60(TB) leukemia
  GI50: 7.14 µM
  TGI: 19.1 µM
BT-549 breast
  GI50: 6.38 µM
  TGI: > 23.2 µM
UACC-257 melanoma
  GI50: 9.99 µM
  TGI: > 22.7 µM
COLO 205 colon
  GI50: 8.32 µM
  TGI: > 25 µM
SF-268 CNS
  GI50: 11.8 µM
  TGI: > 25 µM
OVCAR-8 ovarian
  GI50: 6.81 µM
  TGI: > 22.4 µM
A549 NSCLC
  GI50: 8.52 µM
  TGI: > 25 µM
HOP-62 NSCLC
  GI50: 7.47 µM
  TGI: > 25 µM
KM12 colon
  GI50: 5.05 µM
  TGI: 12.9 µM
OVCAR-4 ovarian
  GI50: 6.06 µM
  TGI: > 25 µM
TK-10 renal
  GI50: 12.1 µM
  TGI: > 25 µM
CAKI-1 renal
  GI50: 5.5 µM
  TGI: > 25 µM
LOX IMVI melanoma
  GI50: 3.94 µM
  TGI: > 25 µM
SK-MEL-2 melanoma
  GI50: 5.24 µM
  TGI: 17.2 µM
MALME-3M melanoma
  GI50: 13.6 µM
  TGI: > 25 µM
SR leukemia
  GI50: 7 µM
  TGI: > 25 µM
786-0 renal
  GI50: 6.45 µM
  TGI: > 25 µM
CCRF-CEM leukemia
  GI50: 7.19 µM
  TGI: > 25 µM

## COc1cc(/C=C/C(=O)/C=C/c2ccc(-n3ccnc3)cc2)ccc1O
U251 CNS
  GI50: 2.21 µM
  TGI: 5.24 µM
K-562 leukemia
  GI50: 3.18 µM
  TGI: > 100 µM
M14 melanoma
  GI50: 2.24 µM
  TGI: 5.98 µM
HOP-92 NSCLC
  GI50: 10.5 µM
  TGI: 27.1 µM
NCI-H23 lung
  GI50: 2.07 µM
  TGI: 5.04 µM
HCT-15 colon
  GI50: 2.48 µM
  TGI: 6.89 µM
SF-539 CNS
  GI50: 2.47 µM
  TGI: 6.31 µM
SK-OV-3 ovarian
  GI50: 6.07 µM
  TGI: 36.1 µM
MDA-MB-435
  GI50: 2.21 µM
  TGI: 5.14 µM
MCF7 breast
  GI50: 0.827 µM
  TGI: 6.21 µM
RPMI-8226 leukemia
  GI50: 1.54 µM
  TGI: 4.46 µM
ACHN renal
  GI50: 3.27 µM
  TGI: 12.6 µM
HS 578T breast
  GI50: 2.91 µM
  TGI: > 100 µM
A498 renal
  GI50: 7.22 µM
  TGI: 19.9 µM
OVCAR-3 ovarian
  GI50: 3.14 µM
  TGI: 10 µM
PC-3 prostate
  GI50: 2.19 µM
  TGI: 5.4 µM
UO-31 renal
  GI50: 1.51 µM
  TGI: 3.15 µM
NCI-H226 lung
  GI50: 2.31 µM
  TGI: 5.8 µM
SK-MEL-28 melanoma
  GI50: 2.42 µM
  TGI: 6.49 µM
MDA-MB-231 breast
  GI50: 3.47 µM
  TGI: 13 µM
SK-MEL-5 melanoma
  GI50: 3.43 µM
  TGI: 12 µM
UACC-62 melanoma
  GI50: 5.01 µM
  TGI: 30.2 µM
HCC-2998 colon
  GI50: 1.79 µM
  TGI: 3.42 µM
RXF 393 renal
  GI50: 1.81 µM
  TGI: 3.42 µM
OVCAR-5 ovarian
  GI50: 16.6 µM
  TGI: 33.9 µM
SN12C renal
  GI50: 2.41 µM
  TGI: 7.53 µM
SW-620 colon
  GI50: 2.34 µM
  TGI: 5.78 µM
DU-145 prostate
  GI50: 3.36 µM
  TGI: 10.1 µM
MOLT-4 leukemia
  GI50: 3.22 µM
  TGI: 42.8 µM
T-47D breast
  GI50: 2.98 µM
  TGI: 9.92 µM
NCI-H522 lung
  GI50: 4.98 µM
  TGI: 18.9 µM
NCI-H460 lung
  GI50: 14.1 µM
  TGI: 34.9 µM
SNB-75 CNS
  GI50: 9.96 µM
  TGI: > 100 µM
NCI/ADR-RES ovarian
  GI50: 15.9 µM
  TGI: > 100 µM
HCT-116 colon
  GI50: 1.45 µM
  TGI: 2.93 µM
HT29 colon
  GI50: 1.97 µM
  TGI: 3.88 µM
SF-295 CNS
  GI50: 14 µM
  TGI: 33 µM
SNB-19 CNS
  GI50: 4.37 µM
  TGI: 47.7 µM
EKVX NSCLC
  GI50: 13.2 µM
  TGI: 42 µM
HL-60(TB) leukemia
  GI50: 3.29 µM
  TGI: 22.4 µM
BT-549 breast
  GI50: 1.87 µM
  TGI: 3.79 µM
UACC-257 melanoma
  GI50: 3.21 µM
  TGI: 11.5 µM
COLO 205 colon
  GI50: 3.26 µM
  TGI: 10.1 µM
SF-268 CNS
  GI50: 3.08 µM
  TGI: 16.2 µM
OVCAR-8 ovarian
  GI50: 3.58 µM
  TGI: > 100 µM
A549 NSCLC
  GI50: 3.19 µM
  TGI: 15.6 µM
HOP-62 NSCLC
  GI50: 3.12 µM
  TGI: 11.8 µM
KM12 colon
  GI50: 2.11 µM
  TGI: 4.59 µM
OVCAR-4 ovarian
  GI50: 8.38 µM
  TGI: 35.5 µM
TK-10 renal
  GI50: 4.42 µM
  TGI: 36.3 µM
CAKI-1 renal
  GI50: 3.24 µM
  TGI: 11.5 µM
LOX IMVI melanoma
  GI50: 1.74 µM
  TGI: 3.19 µM
SK-MEL-2 melanoma
  GI50: 20.8 µM
  TGI: 55.8 µM
MALME-3M melanoma
  GI50: 5.4 µM
  TGI: 36.7 µM
SR leukemia
  GI50: 1.67 µM
  TGI: 9.24 µM
786-0 renal
  GI50: 2.01 µM
  TGI: 4.85 µM
CCRF-CEM leukemia
  GI50: 2.68 µM
  TGI: 12.7 µM
